The values below come from patent US7230011B2, “Benzenesulfonic acid indol-5-yl esters as antagonists of the 5ht6 receptor” (Eli Lilly and Company, priority 2002, dated 2007).

The term melting point denotes the temperature of the solid-liquid transition.

Molecules are shown by their SMILES. Where a name gives a salt, the structure may show the parent alone.

`CC(C)n1cc(C2CCN(C)CC2)c2cc(OS(=O)(=O)c3ccccc3)ccc21.O=C(O)C(=O)O`: the melting point was 103 to 107 °C. The compound `COc1ccc(S(=O)(=O)Oc2ccc3[nH]cc(C4CCN(C)CC4)c3c2)cc1` [Example 38, 4-Methoxybenzenesulfonic acid 3-(1-methylpiperidin-4-yl)-1H-indol-5-yl ester] had a melting point of 186 to 187 °C. To `CN1CCC(c2c[nH]c3ccc(OS(=O)(=O)c4ccc(NS(C)(=O)=O)cc4)cc23)CC1.Cl` belongs 238 °C (dec.); to `CN1CCC(c2c3n(c4ccc(OS(=O)(=O)c5ccccc5)cc24)CCC3)CC1.Cl`, 202 to 204 °C. To `CCCn1cc(C2CCN(C)CC2)c2cc(OS(=O)(=O)c3c(F)cccc3F)ccc21.O=C(O)C(=O)O` belongs 185 to 189 °C; to `CN1CCC(c2c[nH]c3ccc(OS(=O)(=O)c4c(F)cccc4F)cc23)CC1` [47], 235 to 238 °C. The compound `CN1CCC(c2cn(Cc3ccc(F)cc3)c3ccc(OS(=O)(=O)c4ccccc4)cc23)CC1.O=C(O)C(=O)O` came in with a melting point of 181 to 184 °C.

`CN1CCC(c2cn(S(C)(=O)=O)c3ccc(OS(=O)(=O)c4ccccc4)cc23)CC1.O=C(O)C(=O)O`: the melting point lay within 95 to 99 °C.

Compound `CN1CC=C(c2c[nH]c3ccc(OS(=O)(=O)c4ccccc4)cc23)CC1` displayed a melting point of 186 to 190 °C. The value for `CCCCn1cc(C2CCN(C)CC2)c2cc(OS(=O)(=O)c3ccccc3)ccc21.Cl` was 169 to 172 °C; that for `Cc1ccc(S(=O)(=O)Oc2ccc3[nH]cc(C4CCN(C)CC4)c3c2)cc1` [Example 39, 4-Methylphenylsulfonic acid 3-(1-methylpiperidin-4-yl)-1H-indol-5-yl ester] was 186 to 187 °C. In turn, `CN1CCC(c2cn(S(=O)(=O)c3cccc4ccccc34)c3ccc(OS(=O)(=O)c4ccccc4)cc23)CC1.O=C(O)C(=O)O` had a melting point of 121 to 125 °C.

As to `CN1CCC(c2c[nH]c3ccc(OS(=O)(=O)c4ccc(Cl)cc4)cc23)CC1` [Example 37, 4-Chlorobenzenesulfonic acid 3-(1-methylpiperidin-4-yl)-1H-indol-5-yl ester], the melting point was 182 to 183.5 °C. To `CN1CCC(c2cn(Cc3ccccc3)c3ccc(OS(=O)(=O)c4c(F)cccc4F)cc23)CC1.O=C(O)C(=O)O` belongs 205 to 208 °C; to `CN1CCC(c2cn(CCc3ccccc3)c3ccc(OS(=O)(=O)c4ccccc4)cc23)CC1.O=C(O)C(=O)O`, 208 to 212 °C; to `CC(C)S(=O)(=O)n1cc(C2CCN(C)CC2)c2cc(OS(=O)(=O)c3ccccc3)ccc21.O=C(O)C(=O)O`, 134 to 138 °C. To `CN1CCC(c2cn(CCc3ccccc3)c3ccc(OS(=O)(=O)c4c(F)cccc4F)cc23)CC1.Cl` belongs 209 to 212 °C. To `Cc1[nH]c2ccc(OS(=O)(=O)c3c(F)cccc3F)cc2c1C1CCN(C)CC1` (as salt: hydrochloride) [Example 31, 2,6-Difluorobenzenesulfonic acid 2-methyl-3-(1-methylpiperidin-4-yl)-1H-indol-5-yl ester] belongs 138 °C (dec.); to `CN1CCC(c2cn(CCCc3ccccc3)c3ccc(OS(=O)(=O)c4ccccc4)cc23)CC1.O=C(O)C(=O)O`, 188 to 191 °C; to `Cc1cc(OS(=O)(=O)c2ccccc2)cc2c(C3CCN(C)CC3)c[nH]c12` [Example 62, Benzenesulfonic Acid 7-methyl-3-(1-methylpiperidin-4-yl)-1H-indol-5-yl Ester], 118 °C. `CN1CCC(c2c[nH]c3ccc(OS(=O)(=O)c4ccc(F)cc4)cc23)CC1` [Example 51, 4-Fluorobenzenesulfonic acid 3-(1-methylpiperidin-4-yl)-1H-indol-5-yl ester] had a melting point of 170 to 172 °C. To `CN1CCC(c2cn(C)c3ccc(OS(=O)(=O)c4c(F)cccc4F)cc23)CC1.O=C(O)C(=O)O` belongs 195 to 198 °C (dec.); to `CN1CCC(c2c[nH]c3ccc(OS(=O)(=O)c4ccc(F)cc4F)cc23)CC1` [Example 35, 2,4-Difluorobenzenesulfonic acid 3-(1-methylpiperidin-4-yl)-1H-indol-5-yl ester], 163 to 164 °C.

For `CN1CC=C(c2c[nH]c3ccc(OS(=O)(=O)c4c(F)cccc4F)cc23)CC1`, the melting point was 183 °C (dec.). The value for `CN1CCC(c2cn(C)c3ccc(OS(=O)(=O)c4ccccc4)cc23)CC1.O=C(O)C(=O)O` was 135 to 142 °C; that for `CN1CCC(c2cn(S(=O)(=O)Cc3ccccc3)c3ccc(OS(=O)(=O)c4ccccc4)cc23)CC1.O=C(O)C(=O)O` was 120 to 124 °C. To `CN1CCC(c2cn(Cc3ccccc3F)c3ccc(OS(=O)(=O)c4ccccc4)cc23)CC1.Cl` belongs 222 to 224 °C; to `Cc1cc(OS(=O)(=O)c2c(F)cccc2F)cc2c(C3CCN(C)CC3)cn(C)c12` [Example 56, 2,6-Difluorobenzenesulfonic acid 1,7-dimethyl-3-(1-methylpiperidin-4-yl)-1H-indol-5-yl ester], 139 °C; to `CN1CCC(c2c[nH]c3ccc(OS(=O)(=O)c4c(F)cccc4F)cc23)CC1` [Example 42, 2,6-Difluorobenzenesulfonic acid 3-(1-methylpiperidin-4-yl)-1H-indol-5-yl ester], 214 to 215 °C. For `CCCCn1cc(C2CCN(C)CC2)c2cc(OS(=O)(=O)c3ccccc3)ccc21.O=C(O)C(=O)O`, the melting point was in the range of 193 to 198 °C. Compound `CN1CCC(c2cn(Cc3ccc(F)cc3)c3ccc(OS(=O)(=O)c4c(F)cccc4F)cc23)CC1.Cl` had a melting point of 114 to 118 °C. In turn, `CCCn1cc(C2=CCN(C)CC2)c2cc(OS(=O)(=O)c3ccccc3)ccc21` (as salt: hydrochloride) had a melting point of 170 to 174 °C. `CN1CCC(c2c[nH]c3ccc(OS(=O)(=O)c4ccc(F)c(F)c4F)cc23)CC1` [Example 41, 2,3,4-Trifluorobenzenesulfonic acid 3-(1-methylpiperidin-4-yl)-1H-indol-5-yl ester] had a melting point of 160 to 162 °C. To `CN1CCC(c2c[nH]c3ccc(OS(=O)(=O)c4ccccc4F)cc23)CC1` [Example 40, 2-Fluorobenzenesulfonic acid 3-(1-methylpiperidin-4-yl)-1H-indol-5-yl ester] belongs 180 to 182 °C; to `Cc1cc(OS(=O)(=O)c2c(Cl)cccc2Cl)cc2c(C3CCN(C)CC3)c[nH]c12` [Example 63, 2,6-Dichlorobenzenesulfonic Acid 7-methyl-3-(1-methylpiperidin-4-yl)-1H-indol-5-yl Ester], 179 °C; to `CN1CCC(c2c3n(c4ccc(OS(=O)(=O)c5c(F)cccc5F)cc24)CCC3)CC1.Cl`, 149 °C.

`Cc1cc(OS(=O)(=O)c2c(F)cccc2F)cc2c(C3CCN(C)CC3)cn(Cc3ccccc3)c12` [Example 59, 2,6-Difluorobenzenesulfonic acid 1-benzyl-7-methyl-3-(1-methylpiperidin-4-yl)-1H-indol-5-yl ester] registered a melting point of 158 °C.

`CN1CCC(c2c[nH]c3ccc(OS(=O)(=O)c4ccc(I)cc4)cc23)CC1` [Example 36, 4-Iodobenzenesulfonic acid 3-(1-methylpiperidin-4-yl)-1H-indol-5-yl ester] gave a melting point of 174 to 176 °C. To `CN1CCC(c2c[nH]c3cc(F)c(OS(=O)(=O)c4c(F)cccc4F)cc23)CC1` [Example 32, 2,6-Difluorobenzenesulfonic acid 6-fluoro-3-(1-methylpiperidin-4-yl)-1H-indol-5-yl ester] belongs 202 °C; to `CN1CCC(c2c[nH]c3ccc(OS(=O)(=O)c4ccc([N+](=O)[O-])cc4)cc23)CC1` [Example 43, 4-Nitrobenzenesulfonic acid 3-(1-methylpiperidin-4-yl)-1H-indol-5-yl ester], 171 to 172 °C; to `CCCS(=O)(=O)n1cc(C2CCN(C)CC2)c2cc(OS(=O)(=O)c3ccccc3)ccc21.O=C(O)C(=O)O`, 139 to 142 °C.

Take `CN1CCC(c2cn(CCCCc3ccccc3)c3ccc(OS(=O)(=O)c4ccccc4)cc23)CC1.Cl`: the melting point fell in the range of 158 to 161 °C. The value for `CCn1cc(C2CCN(C)CC2)c2cc(OS(=O)(=O)c3c(F)cccc3F)ccc21.O=C(O)C(=O)O` was 161 to 165 °C; that for `CN1CCC(c2cn(C3CCCC3)c3ccc(OS(=O)(=O)c4ccccc4)cc23)CC1.O=C(O)C(=O)O` was 202 to 205 °C; that for `CC(C)Cn1cc(C2CCN(C)CC2)c2cc(OS(=O)(=O)c3ccccc3)ccc21.Cl` was 188 to 191 °C. With `CCS(=O)(=O)n1cc(C2CCN(C)CC2)c2cc(OS(=O)(=O)c3ccccc3)ccc21.O=C(O)C(=O)O`, the melting point lay in the range of 121 to 126 °C. To `CN1CCC(c2c[nH]c3ccc(OS(=O)(=O)c4ccccc4)cc23)CC1` [Example 34, Benzenesulfonic acid 3-(1-methylpiperidin-4-yl)-1H-indol-5-yl ester] belongs 192 to 194 °C; to `CN1CCC(c2cn(Cc3ccc(F)cc3F)c3ccc(OS(=O)(=O)c4ccccc4)cc23)CC1.O=C(O)C(=O)O`, 141 to 144 °C; to `CN1CCC(c2cn(Cc3cccc(F)c3)c3ccc(OS(=O)(=O)c4ccccc4)cc23)CC1.Cl`, 103 to 105 °C. To `CN1CCC(c2cn(Cc3ccc(F)cc3)c3ccc(OS(=O)(=O)c4ccccc4)cc23)CC1.Cl` belongs 169 to 172 °C; to `CCCn1cc(C2CCN(C)CC2)c2cc(OS(=O)(=O)c3ccccc3)ccc21.Cl`, 194 to 197 °C; to `CCn1cc(C2CCN(C)CC2)c2cc(OS(=O)(=O)c3ccccc3)ccc21.O=C(O)C(=O)O`, 127 to 130 °C.

`CN1CCC(c2c[nH]c3ccc(OS(=O)(=O)c4ccccc4)cc23)CC1` [Example 45, Benzenesulfonic acid 3-(1-methylpiperidin-4-yl)-1H-indol-5-yl ester] showed a melting point of 189 to 194 °C. As for `CN1CCC(c2cn(Cc3ccccc3)c3ccc(OS(=O)(=O)c4ccccc4)cc23)CC1.Cl`, the melting point lay in the range of 227 to 230 °C.
